Patent US11912668B2, “GCN2 and perk kinase inhibitors and methods of use thereof” (Deciphera Pharmaceuticals, LLC, priority 2020, dated 2024)

Experiments:
GCN2 kinase = GCN2 kinase (Homo sapiens (Human), UniProt Q9P2K8); experiment: Biochemical assay for GCN2 (TR-FRET kinase activity assay); details: 1 mM ATP, 3-hour incubation
Outline: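 TR-FRET assay with 2 nM GCN2, 130 nM GFP-eIF2α substrate, 0.2 mg/mL E. coli tRNA and 1 mM ATP; compounds (0.5% DMSO) reacted 3 h. Stopped with 20 mM EDTA plus 2 nM Tb-anti-peIF2α (pSer52), 60 min RT; 520/490 ratio converted to % inhibition, IC50 from four-parameter fit.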

PERK kinase = PERK kinase (Homo sapiens (Human), UniProt Q9NZJ5); experiment: Biochemical assay for PERK (coupled pyruvate kinase/lactate dehydrogenase assay); details: 1 mM ATP, rate from 2-3 h time frame
Outline: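 Coupled pyruvate kinase/lactate dehydrogenase readout of ATP hydrolysis via NADH oxidation (A340), 10 nM PERK, 0.25 mg/mL myelin basic protein, 1 mM ATP, pH 7.5 Tris/MgCl2 buffer, 1% DMSO. Absorbance followed 6 h at 30° C; rate from the 2-3 h window, normalised to no-compound and known-inhibitor controls, IC50 fitted.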

CCRF-CEM leukemia cells = experiment: CCRF-CEM ASNase cell proliferation assay, phenotypic assay for cellular inhibition of GCN2; assay type: cell-based; details: Homo sapiens; ASNase treated CCRF-CEM cells, 1 mU/mL ASNase, 72 h
Outline: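 Cells were seeded at ten thousand per well in RPMI-1640 with 10% heat-inactivated FBS and treated in triplicate with serially diluted compound plus 1 mU/mL ASNase for 72 h at 37 °C, 5% CO2. Resazurin was then added for 6 h, with fluorescence read at ex 540/em 600 nm to derive IC50 values.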

[1] = tested on: phospho-GCN2 (Thr899) in HCT116 colorectal cancer cells; experiment: HCT116 amino acid starved (-AA) phospho-GCN2 assay (Western blot); assay type: cell-based; details: Homo sapiens, HCT-116, 4 h, read-out: HCT116-AA pGCN2 Western Blot
Outline: (§1)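 HCT116 cells switched to amino-acid-free EBSS (10% dialyzed FBS, 5.5 mM glucose, vitamins) with serial compound dilutions for 4 h at 37° C. Lysates Western blotted for phospho-GCN2 (Thr899), total GCN2, ATF4 and beta-actin; IC50 values derived from quantified bands.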

[2] = tested on: ATF4 in HCT116 colorectal cancer cells; experiment: HCT116 amino acid starved (-AA) ATF4 assay (Western blot); assay type: cell-based; details: Homo sapiens, HCT-116, 4 h
Outline: as §1

[3] = tested on: ATF4 in CCRF-CEM leukemia cells (PERK); experiment: CCRF-CEM TG ATF4 ELISA, phenotypic assay for cellular inhibition of PERK preactivated by thapsigargin; assay type: cell-based; details: Homo sapiens; Thapsigargin (1 μM) stimulated CCRF-CEM cells
[4] = tested on: ATF4 in H929 multiple myeloma cells; experiment: H929 ATF4 ELISA assay (stimulation of cellular ATF4); assay type: cell-based; details: 4 h, no thapsigargin
Method: H929 multiple myeloma cells (catalog #CRL-9068) were obtained from the American Type Culture Collection (ATTC, Manassas, VA). Briefly, cells were grown in RPMI-1640 medium supplemented with 20% heat-inactivated fetal bovine serum (catalog #A3840002, ThermoFisher Scientific, Waltham, MA), 1% Penicillin/Streptomycin/L-Glutamine (catalog #10378016, ThermoFisher Scientific, Waltham, MA), and 0.05 mM 2-mercaptoethanol (catalog #21985-023, ThermoFisher Scientific, Waltham, MA) at 37° C., 5% CO2, and 95% humidity. Cells were expanded until reaching one million five hundred thousand cells per mL at which time they were subcultured or harvested for assay use. One million five hundred thousand cells per well in 1 mL complete growth medium were dispensed into 12-well plates and incubated overnight. A serial dilution of test compound was added, and cells were incubated at 37° C., 5% CO2, and 95% for four hours. Cells were lysed then ATF4 levels were measured using an ELISA assay (Proteintech, Rosemont, IL). Absorbance is measured at 450 nm and 544 nM using a Synergy2 or equivalent reader (Biotek, Winooski VT). Data were analyzed using PRISM software (Graphpad, San Diego, CA) to calculate fold stimulation of cellular ATF4 relative to vehicle treated control.

Sequence of PERK kinase (Q9NZJ5 other isoform, or with tags, fused parts or gaps): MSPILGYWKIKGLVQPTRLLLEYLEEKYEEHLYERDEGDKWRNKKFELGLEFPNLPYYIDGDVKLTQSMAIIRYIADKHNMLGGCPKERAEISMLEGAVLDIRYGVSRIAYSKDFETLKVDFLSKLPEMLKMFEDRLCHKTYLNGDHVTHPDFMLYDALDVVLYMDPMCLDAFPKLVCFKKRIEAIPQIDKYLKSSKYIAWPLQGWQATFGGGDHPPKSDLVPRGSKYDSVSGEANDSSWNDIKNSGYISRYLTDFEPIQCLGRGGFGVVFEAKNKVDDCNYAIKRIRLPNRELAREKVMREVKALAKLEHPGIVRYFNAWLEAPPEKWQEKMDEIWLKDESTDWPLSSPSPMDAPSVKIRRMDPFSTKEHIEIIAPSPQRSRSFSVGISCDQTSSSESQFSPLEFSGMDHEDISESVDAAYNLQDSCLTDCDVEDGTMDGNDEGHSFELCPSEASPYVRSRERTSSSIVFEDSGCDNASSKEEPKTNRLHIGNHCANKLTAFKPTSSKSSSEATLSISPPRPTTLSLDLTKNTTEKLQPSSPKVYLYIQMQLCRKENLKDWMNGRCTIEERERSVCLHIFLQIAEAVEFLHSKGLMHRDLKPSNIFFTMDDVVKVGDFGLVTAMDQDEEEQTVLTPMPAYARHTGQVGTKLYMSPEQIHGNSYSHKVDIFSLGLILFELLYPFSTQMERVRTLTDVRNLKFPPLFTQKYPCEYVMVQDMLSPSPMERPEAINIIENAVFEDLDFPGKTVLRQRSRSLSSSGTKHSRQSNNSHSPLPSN
Sequence of GCN2 kinase (Q9P2K8 whole entry): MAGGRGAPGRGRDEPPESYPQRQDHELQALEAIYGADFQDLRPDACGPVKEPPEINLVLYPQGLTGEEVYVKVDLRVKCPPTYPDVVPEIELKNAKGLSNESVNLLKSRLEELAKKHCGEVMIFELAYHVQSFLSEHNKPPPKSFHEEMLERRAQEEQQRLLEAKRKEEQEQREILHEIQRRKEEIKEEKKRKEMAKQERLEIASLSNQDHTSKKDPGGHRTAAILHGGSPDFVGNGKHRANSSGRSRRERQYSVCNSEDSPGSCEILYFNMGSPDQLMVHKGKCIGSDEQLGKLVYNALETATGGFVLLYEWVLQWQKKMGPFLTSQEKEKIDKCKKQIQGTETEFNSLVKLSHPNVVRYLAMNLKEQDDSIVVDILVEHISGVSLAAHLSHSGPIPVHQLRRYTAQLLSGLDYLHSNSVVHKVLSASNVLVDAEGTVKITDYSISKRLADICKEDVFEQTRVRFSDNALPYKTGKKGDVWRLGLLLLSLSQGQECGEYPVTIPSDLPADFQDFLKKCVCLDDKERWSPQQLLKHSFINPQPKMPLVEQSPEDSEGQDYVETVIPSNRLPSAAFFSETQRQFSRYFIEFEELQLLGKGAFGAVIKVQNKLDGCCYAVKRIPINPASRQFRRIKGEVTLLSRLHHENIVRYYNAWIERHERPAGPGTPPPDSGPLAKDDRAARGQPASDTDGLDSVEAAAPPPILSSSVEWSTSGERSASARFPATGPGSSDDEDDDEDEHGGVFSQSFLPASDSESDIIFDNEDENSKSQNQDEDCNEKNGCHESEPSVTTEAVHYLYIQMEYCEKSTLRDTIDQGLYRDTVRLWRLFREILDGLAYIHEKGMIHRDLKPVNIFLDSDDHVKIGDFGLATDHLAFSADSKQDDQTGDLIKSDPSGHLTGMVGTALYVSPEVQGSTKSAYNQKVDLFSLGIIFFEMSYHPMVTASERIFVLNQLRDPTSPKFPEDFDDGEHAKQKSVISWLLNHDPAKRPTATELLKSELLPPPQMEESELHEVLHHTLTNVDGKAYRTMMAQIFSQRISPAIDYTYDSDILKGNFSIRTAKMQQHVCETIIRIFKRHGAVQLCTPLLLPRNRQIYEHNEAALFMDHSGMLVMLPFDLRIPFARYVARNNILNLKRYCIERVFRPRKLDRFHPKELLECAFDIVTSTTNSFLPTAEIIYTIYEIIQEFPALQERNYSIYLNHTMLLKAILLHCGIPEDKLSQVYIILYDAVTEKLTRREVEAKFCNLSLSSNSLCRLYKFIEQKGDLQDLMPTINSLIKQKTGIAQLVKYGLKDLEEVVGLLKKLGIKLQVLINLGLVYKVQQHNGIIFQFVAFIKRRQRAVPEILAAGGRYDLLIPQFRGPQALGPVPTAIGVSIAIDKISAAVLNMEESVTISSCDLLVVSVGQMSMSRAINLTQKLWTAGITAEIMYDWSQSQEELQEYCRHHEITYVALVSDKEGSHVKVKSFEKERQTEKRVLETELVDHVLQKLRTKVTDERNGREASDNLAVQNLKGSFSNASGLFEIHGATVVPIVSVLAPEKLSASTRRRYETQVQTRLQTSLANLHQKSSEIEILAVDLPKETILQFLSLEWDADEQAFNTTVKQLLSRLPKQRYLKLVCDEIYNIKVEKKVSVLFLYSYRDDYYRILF

CNc1cc2nc(C)c(-c3cc(F)cc(NS(=O)(=O)c4cc(Cl)cc(CO)c4Cl)c3)cc2cn1 [Example 25]
IC50 (GCN2 kinase): ≤ 100 nM
IC50 (PERK kinase): ≤ 100 nM
IC50 (CCRF-CEM leukemia cells): ≤ 100 nM
IC50 [1]: ≤ 100 nM
IC50 [2]: ≤ 100 nM
IC50 [3]: 1000 to 10000 nM
H929 NS ATF4 ELISA (fold stimulation of ATF4 relative to vehicle) [4]: ++ (“++” refers to an ATF4 stim greater than 5 fold and less than or equal to 10 fold)

CNc1cc2nc(C)c(-c3cccc(NS(=O)(=O)c4cc(Cl)cnc4OC)c3F)cc2cn1 [Example 31]
IC50 (GCN2 kinase): ≤ 100 nM
IC50 (PERK kinase): ≤ 100 nM
IC50 (CCRF-CEM leukemia cells): ≤ 100 nM
IC50 [1]: ≤ 100 nM
IC50 [2]: ≤ 100 nM
IC50 [3]: 1000 to 10000 nM
H929 NS ATF4 ELISA (fold stimulation of ATF4 relative to vehicle) [4]: ++ (“++” refers to an ATF4 stim greater than 5 fold and less than or equal to 10 fold)

CNc1ncc2cc(-c3cc(NS(=O)(=O)c4cc(Cl)cnc4OC)cc(F)c3F)c(NC)nc2n1 [Example 49]
IC50 (GCN2 kinase): ≤ 100 nM
IC50 (PERK kinase): 100 to 500 nM
IC50 (CCRF-CEM leukemia cells): ≤ 100 nM
IC50 [1]: ≤ 100 nM
IC50 [2]: 100 to 500 nM
IC50 [3]: 1000 to 10000 nM
H929 NS ATF4 ELISA (fold stimulation of ATF4 relative to vehicle) [4]: + (“+” refers to an ATF4 stim less than or equal to 5-fold)

CNc1nc2nc(N)ncc2cc1-c1cccc(NS(=O)(=O)c2cc(Cl)cnc2OC)c1F [Example 109, N-(3-(2-amino-7-(methylamino)pyrido[2,3-d]pyrimidin-6-yl)-2-fluorophenyl)-5-chloro-2-methoxypyridine-3-sulfonamide]
IC50 (GCN2 kinase): ≤ 100 nM
IC50 (PERK kinase): 100 to 500 nM
IC50 (CCRF-CEM leukemia cells): ≤ 100 nM
IC50 [1]: ≤ 100 nM
IC50 [2]: ≤ 100 nM
IC50 [3]: 500 to 1000 nM
H929 NS ATF4 ELISA (fold stimulation of ATF4 relative to vehicle) [4]: +++ (“+++” refers to an ATF4 stim greater than 10 fold and less than or equal to 20 fold)

CNc1nc2nc(Nc3cnn(C)c3)ncc2cc1-c1cccc(NS(=O)(=O)c2cc(Cl)cnc2OC)c1F [Example 110]
IC50 (GCN2 kinase): ≤ 100 nM
IC50 (PERK kinase): ≤ 100 nM
IC50 (CCRF-CEM leukemia cells): ≤ 100 nM
IC50 [1]: ≤ 100 nM
IC50 [2]: ≤ 100 nM
IC50 [3]: 100 to 500 nM
H929 NS ATF4 ELISA (fold stimulation of ATF4 relative to vehicle) [4]: ++ (“++” refers to an ATF4 stim greater than 5 fold and less than or equal to 10 fold)

CNc1cc2nc(N)c(-c3cccc(NS(=O)(=O)c4cc(Cl)cnc4OC)c3F)cc2cn1 [Example 128]
IC50 (GCN2 kinase): ≤ 100 nM
IC50 (PERK kinase): ≤ 100 nM
IC50 (CCRF-CEM leukemia cells): ≤ 100 nM
IC50 [1]: ≤ 100 nM
IC50 [2]: ≤ 100 nM
IC50 [3]: ≤ 100 nM
H929 NS ATF4 ELISA (fold stimulation of ATF4 relative to vehicle) [4]: +++ (“+++” refers to an ATF4 stim greater than 10 fold and less than or equal to 20 fold)

CNc1ncc2cc(-c3cccc(NS(=O)(=O)c4cccc(CO)c4Cl)c3F)c(NC)nc2n1 [Example 151]
IC50 (GCN2 kinase): ≤ 100 nM
IC50 (PERK kinase): 100 to 500 nM
IC50 (CCRF-CEM leukemia cells): ≤ 100 nM
IC50 [1]: ≤ 100 nM
IC50 [2]: ≤ 100 nM
IC50 [3]: 100 to 500 nM
H929 NS ATF4 ELISA (fold stimulation of ATF4 relative to vehicle) [4]: ++ (“++” refers to an ATF4 stim greater than 5 fold and less than or equal to 10 fold)

CNc1ncc2cc(-c3cccc(NS(=O)(=O)c4cc(Cl)cc(CO)c4Cl)c3F)c(NC)nc2n1 [Example 175]
IC50 (GCN2 kinase): ≤ 100 nM
IC50 (PERK kinase): ≤ 100 nM
IC50 (CCRF-CEM leukemia cells): ≤ 100 nM
IC50 [3]: 100 to 500 nM
H929 NS ATF4 ELISA (fold stimulation of ATF4 relative to vehicle) [4]: +++ (“+++” refers to an ATF4 stim greater than 10 fold and less than or equal to 20 fold)

CNc1ncc2cc(-c3cccc(NS(=O)(=O)c4cc(Cl)cc(CO)c4OC)c3F)c(NC)nc2n1 [Example 179]
IC50 (GCN2 kinase): ≤ 100 nM
IC50 (PERK kinase): ≤ 100 nM
IC50 (CCRF-CEM leukemia cells): ≤ 100 nM
IC50 [3]: 100 to 500 nM
H929 NS ATF4 ELISA (fold stimulation of ATF4 relative to vehicle) [4]: +++ (“+++” refers to an ATF4 stim greater than 10 fold and less than or equal to 20 fold)
